Data reported in patent publication US20210198284A1, “GOLD COMPOSITIONS AND METHODS OF USE THEREOF” (THE UNIVERSITY OF MASSACHUSETTS, priority 2018, published 2021).

Legend:
Format in all cases: cell-based
[1] = test system: C. neoformans ATCC 208821; experiment: Antifungal MIC; conditions: C. neoformans ATCC 208821
[2] = test system: A549 cells; experiment: Cytotoxicity assay (resazurin); conditions: 20 h, mean±S.E.M. from two independent experiments
Description: Sample preparation. The compounds were dissolved in DMSO at 12.8 mg/mL as the stock solutions, except for compounds 9-17, which were directly dissolved in the culture medium at 12.8 mg/mL. The stock solutions were diluted by the culture medium to the testing concentration at 128 μg/mL (compound 9-17 were diluted to 1,280 μg/mL). The solutions were then serially diluted two fold in a 96-well plate and were used in the cytotoxicity assay immediately.
Cell culture and cytotoxicity assay. A549 cells (ATCC CCL-185) were cultured in high glucose DMEM (Sigma-Aldrich, D6429) supplemented with 10% FBS, 1% penicillin-streptomycin solution (Sigma-Aldrich, P4333), 1% gentamicin solution (Sigma-Aldrich, G1272) and 1% amphotericin B solution (Sigma-Aldrich, A2942) at 37° C. in a humidified atmosphere containing 5% CO2. After cells reached 80%˜90% confluency, they were detached and counted using an Invitrogen Countess automated cell counter. Cells with viability over 90% were seeded at a density of 5×10^3 cells per well in 96-well cell culture plates. After overnight culture, the culture medium in each well removed with a pipet. 80 μL of the compound solutions from each well of the 96-well plate prepared above were transferred to this 96-well plate containing the cells, and the plates were incubated for 20 h. After addition of 8 μL of 110 μg/mL resazurin, the plates were incubated for further 3 h at 37° C. in 5% CO2. The fluorescence intensity was measured using a Tecan M200 Infinite Pro microplate reader at excitation 560 nm, emission 590 nm. IC50 were calculated by curve fitting the inhibition values vs. log(concentration) using GraphPad's Prism. The cytotoxicity assays (in triplicate) were repeated twice using freshly prepared cells and compound solutions.

[3] = test system: P. aeruginosa NCTC 13437; experiment: Antibacterial assay, MIC/MBC by broth microdilution (CLSI); conditions: P. aeruginosa NCTC 13437; for MIC: repeated twice, a/b = both values
Procedure, shortened: (§1)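 CLSI broth microdilution in cation-adjusted Mueller Hinton broth, log-phase inoculum diluted to 7.5×10^5 CFU/mL before 1:1 mixing with two-fold compound dilutions, triplicates, 18 h at 37 °C static. MIC: >90% inhibition by OD600; MBC: lowest concentration giving no colonies after 5 μL spotted on agar, 18 h, 37 °C.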

[4] = test system: A. baumannii NCTC 13420; experiment: as above; conditions: A. baumannii NCTC 13420; for MIC: repeated twice, a/b = both values
Procedure, shortened: as §1

[5] = test system: E. coli ATCC 25922; experiment: as above; conditions: for MIC: repeated twice, a/b = both values
Procedure, shortened: as §1

[6] = test system: S. aureus JE2 (USA300); experiment: as above; conditions: S. aureus JE2 (USA300); for MIC: repeated twice, a/b = both values
Procedure, shortened: as §1

[7] = test system: E. cloacae NCTC 13405; experiment: as above; conditions: E. cloacae NCTC 13405; for MIC: repeated twice, a/b = both values
Procedure, shortened: as §1

[8] = test system: K. pneumoniae ATCC 700603; experiment: as above; conditions: K. pneumoniae ATCC 700603; repeated twice, a/b = both values
Procedure, shortened: as §1

[9] = test system: E. faecalis ATCC 700221; experiment: as above; conditions: for MIC: repeated twice, a/b = both values
Procedure, shortened: as §1

[10] = test system: C. albicans ATCC 90028; experiment: Antifungal MIC

| SMILES | MIC [1] | IC50 against A549 cells [2] | MIC [3] | MBC (in brackets) [4] | MIC [4] | MBC (in brackets) [5] | MIC [5] | MBC (in brackets) [6] | MIC [6] | MIC [7] | MIC [8] | MBC (in brackets) [9] | MIC [9] | MIC [10] | MBC (in brackets) [3] | MBC (in brackets) [7] |
| --- | --- | --- | --- | --- | --- | --- | --- | --- | --- | --- | --- | --- | --- | --- | --- | --- |
| CC[P+](CC)(CC)[Au-][S][C@@H]1O[C@H](COC(C)=O)[C@@H](OC(C)=O)[C@H](OC(C)=O)[C@H]1NC(=O)C(Cl)(Cl)Cl [Compound 4, (3,4,6-Tri-O-acetyl-2-N-trichloroactyl-1-thio-β-D-glucopyranosato) (triethylphosphine) gold (I)] | >32 µg/mL | 7.9 ± 0.1 µg/mL | >328 μM/mL | 164 μM/mL | 82 μM/mL | 21 (21) μM/mL | 21 (21) μM/mL | (0.01) μM/mL | 0.01 μM/mL | >328 μM/mL | >328 μM/mL | (0.2) μM/mL | 0.08 μM/mL | >32 µg/mL |  |  |
| CC[P+](CC)(CC)[Au-][S][C@@H]1O[C@H](COC(C)=O)[C@@H](O[C@@H]2O[C@H](COC(C)=O)[C@H](OC(C)=O)[C@H](OC(C)=O)[C@H]2OC(C)=O)[C@H](OC(C)=O)[C@H]1OC(C)=O [Compound 6, [2,3,4,6-Tetra-O-acetyl-β-D-galactopyranosyl (1→4)-2,3,6-tri-O-acetyl-1-thio-β-D-glucopyranosato](triethylphosphine) gold(I)] | >32 µg/mL | 29.8 ± 3.2 µg/mL | 132 (132) μM/mL | 132 μM/mL | 66 μM/mL | 33 (33) μM/mL | 33 (33) μM/mL | (0.1) μM/mL | 0.03 μM/mL | 265 (265) μM/mL | >265 μM/mL | 0.3 μM/mL | 0.1 μM/mL | >32 µg/mL | 132 (132) μM/mL | 265 (265) μM/mL |
